According to patent publication EP4483954A1 (Masarykova Univerzita, priority 2023, dated 2025):

What was measured:
Format in all cases: biochemical
CLK2 (h) = molecular target: T1, CLK2 (h) (Homo sapiens, UniProt P49760); assay: radiometric kinase assay (KinaseProfiler, Eurofins), CLK2; settings: in vitro radiometric kinase assay, tested at 1 nM to 10 000 nM, no pre-incubation; read-out: inhibitory activities (IC50 values) CLK2
T1 construct: purchased Eurofins (KinaseProfiler)
Protocol: (§1) The compounds were profiled in the radiometric assays (KinaseProfiler, Eurofins).
(§2) Briefly, kinases were diluted in the buffer shown below prior to addition to the reaction mix: • CDKL3, TAF1L: 20 mM Tris/HCl pH 8.5, 0.2 mM EDTA, 0.1% β-mercaptoethanol, 0.01% Brij-35, 5% glycerol, 1 mg/ml BSA; • Haspin: 15 mM MOPS, 0.75 mM EDTA, 0.0075% Brij-35, 3.75% Glycerol, 150 mM NaCl, 0.1% β-mercaptoethanol, 1 mg/mLBSA; • CDKL4, CLK2, PIM1, TRB2: […], 1 mM EDTA, 0.01% Brij-35, 5% Glycerol, 0.1% β-mercaptoethanol, 1 mg/mL BSA.
(§3) All compounds were prepared to 50x final assay concentration in 100% DMSO. This working stock of the compound was added to the assay well as the first component in the reaction, followed by the remaining components as detailed in the general assay protocols below. There was no pre-incubation step between the compound and the kinase prior to initiation of the reaction.
CLK2 (h) was incubated with 8 mM MOPS pH 7.0, 0.2 mM EDTA, 20 µM […](p)EDEEE (SEQ ID NO. 2), 10 mM magnesium acetate and γ-^33P-ATP (specific activity and concentration as required). The reaction was initiated by the addition of the Mg/ATP mix. After incubation for 40 minutes at room temperature, the reaction was stopped by the addition of phosphoric acid to a concentration of 0.5%. An aliquot of the reaction was then spotted onto a filter and washed four times for 4 minutes in 0.425% phosphoric acid and once in methanol prior to drying and scintillation counting.
(§4) Kinase activity data were expressed as the percent remaining kinase activity in tested samples compared to the vehicle (DMSO) reactions. The compounds were tested at the following concentrations: 1 nM, 3 nM, 10 nM, 30 nM, 100 nM, 300 nM, 1000 nM, 3000 nM, and 10 000 nM; IC50 values and curve fits were then obtained.

PIM1 (h) = molecular target: T2, PIM1 (h) (Homo sapiens, UniProt P11309); assay: radiometric kinase assay (KinaseProfiler, Eurofins), PIM1; settings: in vitro radiometric kinase assay, tested at 1 nM to 10 000 nM, no pre-incubation; read-out: inhibitory activities (IC50 values) PIM1
T2 construct: purchased Eurofins (KinaseProfiler)
T2 sequence (P11309 whole entry): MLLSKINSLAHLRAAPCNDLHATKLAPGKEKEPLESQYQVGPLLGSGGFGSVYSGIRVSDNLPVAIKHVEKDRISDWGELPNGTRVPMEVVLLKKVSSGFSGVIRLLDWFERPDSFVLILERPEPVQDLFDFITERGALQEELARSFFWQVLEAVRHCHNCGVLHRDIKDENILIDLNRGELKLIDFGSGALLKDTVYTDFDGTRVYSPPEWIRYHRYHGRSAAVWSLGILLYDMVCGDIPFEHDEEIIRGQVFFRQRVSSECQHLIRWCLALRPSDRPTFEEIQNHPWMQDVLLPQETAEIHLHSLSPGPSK
Protocol: as §1, §2, §3
PIM1 (h) was incubated with 8 mM MOPS pH 7.0, 0.2 mM EDTA, 100 µM KKRNRTLTV (SEQ ID NO. 4), 10 mM magnesium acetate and γ-^33P-ATP (specific activity and concentration as required). The reaction was initiated by the addition of the Mg/ATP mix. After incubation for 40 minutes at room temperature, the reaction was stopped by the addition of phosphoric acid to a concentration of 0.5%. An aliquot of the reaction was then spotted onto a filter and washed four times for 4 minutes in 0.425% phosphoric acid and once in methanol prior to drying and scintillation counting.
as §4

CDKL3(h) = molecular target: T3, CDKL3(h) (Homo sapiens, UniProt Q8IVW4); assay: radiometric kinase assay (KinaseProfiler, Eurofins), CDKL3; settings: in vitro radiometric kinase assay, tested at 1 nM to 10 000 nM, no pre-incubation; read-out: inhibitory activities (IC50 values) CDKL3
T3 construct: purchased Eurofins (KinaseProfiler)
T3 sequence (Q8IVW4 whole entry): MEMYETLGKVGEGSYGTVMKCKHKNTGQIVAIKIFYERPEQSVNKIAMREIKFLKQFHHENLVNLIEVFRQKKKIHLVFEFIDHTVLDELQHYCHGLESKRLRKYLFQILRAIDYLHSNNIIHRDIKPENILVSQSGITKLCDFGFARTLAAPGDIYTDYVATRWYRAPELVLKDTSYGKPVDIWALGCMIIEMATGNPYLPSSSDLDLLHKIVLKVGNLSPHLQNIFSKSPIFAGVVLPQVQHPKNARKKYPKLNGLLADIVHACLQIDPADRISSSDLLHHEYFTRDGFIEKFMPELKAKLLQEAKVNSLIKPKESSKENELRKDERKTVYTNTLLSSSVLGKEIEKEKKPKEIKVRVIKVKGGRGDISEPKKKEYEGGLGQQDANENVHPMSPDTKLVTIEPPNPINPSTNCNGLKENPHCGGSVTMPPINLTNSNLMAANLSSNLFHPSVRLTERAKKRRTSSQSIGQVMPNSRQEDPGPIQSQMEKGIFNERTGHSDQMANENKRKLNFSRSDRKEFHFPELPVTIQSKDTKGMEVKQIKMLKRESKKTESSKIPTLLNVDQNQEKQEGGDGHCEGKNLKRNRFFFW
Protocol: as §1, §2, §3
(§5) CDKL3(h) was incubated with 8 mM MOPS pH 7.0, 0.2 mM EDTA, 250 µM RRRFRPASPLRGPPK (SEQ ID NO. 1), 10 mM magnesium acetate and γ-^33P-ATP (specific activity and concentration as required). The reaction was initiated by the addition of the Mg/ATP mix. After incubation for 120 minutes at room temperature, the reaction was stopped by the addition of phosphoric acid to a concentration of 0.5%. An aliquot of the stopped reaction was spotted onto a filter and washed four times for 4 minutes in 0.425% phosphoric acid and once in methanol prior to drying and scintillation counting.
as §4

TRB2(h) = molecular target: T4, TRB2(h) (Homo sapiens, UniProt Q92519); assay: radiometric kinase assay (KinaseProfiler, Eurofins), TRB2; settings: in vitro radiometric kinase assay, tested at 1 nM to 10 000 nM, no pre-incubation; read-out: inhibitory activities (IC50 values) TRB2
T4 construct: purchased Eurofins (KinaseProfiler)
T4 sequence (Q92519 1-343): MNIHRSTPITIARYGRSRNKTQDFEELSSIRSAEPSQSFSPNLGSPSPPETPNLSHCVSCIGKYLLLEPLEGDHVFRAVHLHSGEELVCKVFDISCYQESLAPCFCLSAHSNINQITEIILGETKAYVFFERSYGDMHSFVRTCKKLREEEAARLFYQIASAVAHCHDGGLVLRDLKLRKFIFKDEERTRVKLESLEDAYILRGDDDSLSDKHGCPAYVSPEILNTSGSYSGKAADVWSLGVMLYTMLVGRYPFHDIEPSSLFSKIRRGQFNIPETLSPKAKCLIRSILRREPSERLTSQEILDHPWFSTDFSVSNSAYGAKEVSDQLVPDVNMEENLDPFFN
Protocol: as §1, §2, §3
as §5, with “TRB2(h)” for “CDKL3(h)”
as §4

CDKL4(h) = molecular target: T5, CDKL4(h) (Homo sapiens, UniProt Q5MAI5); assay: radiometric kinase assay (KinaseProfiler, Eurofins), CDKL4; settings: in vitro radiometric kinase assay, tested at 1 nM to 10 000 nM, no pre-incubation; read-out: inhibitory activities (IC50 values) CDKL4
T5 construct: purchased Eurofins (KinaseProfiler)
T5 sequence (Q5MAI5 whole entry): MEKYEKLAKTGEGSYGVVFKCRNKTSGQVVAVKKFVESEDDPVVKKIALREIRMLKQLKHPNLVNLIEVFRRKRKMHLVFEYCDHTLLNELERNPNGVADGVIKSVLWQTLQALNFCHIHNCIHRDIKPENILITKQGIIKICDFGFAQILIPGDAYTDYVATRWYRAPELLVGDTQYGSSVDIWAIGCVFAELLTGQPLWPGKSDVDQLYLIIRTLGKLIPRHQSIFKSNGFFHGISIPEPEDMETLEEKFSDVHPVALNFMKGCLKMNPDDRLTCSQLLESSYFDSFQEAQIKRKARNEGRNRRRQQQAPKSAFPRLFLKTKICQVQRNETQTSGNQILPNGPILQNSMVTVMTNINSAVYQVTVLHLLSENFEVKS
Protocol: as §1, §2, §3
as §5, with “CDKL4(h)” for “CDKL3(h)”
as §4

T1 sequence (P49760 whole entry): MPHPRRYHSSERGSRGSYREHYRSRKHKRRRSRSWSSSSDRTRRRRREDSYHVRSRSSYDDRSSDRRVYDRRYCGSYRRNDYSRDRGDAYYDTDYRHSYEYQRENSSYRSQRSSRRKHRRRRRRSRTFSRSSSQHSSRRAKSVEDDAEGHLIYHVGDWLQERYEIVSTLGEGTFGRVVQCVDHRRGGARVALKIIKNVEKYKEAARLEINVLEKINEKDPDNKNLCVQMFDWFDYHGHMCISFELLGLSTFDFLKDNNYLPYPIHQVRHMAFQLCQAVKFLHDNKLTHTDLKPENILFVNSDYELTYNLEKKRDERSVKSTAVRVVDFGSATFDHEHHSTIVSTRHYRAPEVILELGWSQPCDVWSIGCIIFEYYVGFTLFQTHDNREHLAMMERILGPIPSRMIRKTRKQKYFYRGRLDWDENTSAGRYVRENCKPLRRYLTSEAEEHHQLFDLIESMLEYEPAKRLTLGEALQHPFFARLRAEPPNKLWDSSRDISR

| SMILES | IC50 (CLK2 (h)) [nM] | IC50 (PIM1 (h)) [nM] | IC50 (CDKL3(h)) [nM] | IC50 (TRB2(h)) [nM] | IC50 (CDKL4(h)) [nM] |
| --- | --- | --- | --- | --- | --- |
| Cn1cc(-c2ccc3scc(-c4ccnc(C#N)c4)c3n2)cn1 | 3000 to 10000 | 500 to 3000 | 100 to 499 | 100 to 499 | 100 to 499 |
| Cn1cc(-c2ccc3scc(-c4cnn(Cc5ccccc5)c4)c3n2)cn1 | 3000 to 10000 | 20 to 99 | 500 to 3000 | 500 to 3000 | 100 to 499 |
| Cn1cc(-c2ccc3scc(-c4ccccc4)c3n2)cn1 [Preparative Example 2, 5-(1-methyl-1H-pyrazol-4-yl)-3-phenylthieno[3,2-b]pyridine] | 3000 to 10000 | 500 to 3000 | 100 to 499 | 500 to 3000 | 100 to 499 |
| Cn1cc(-c2ccc3scc(C4=CCNCC4)c3n2)cn1 [Preparative Example 9, 5-(1-methyl-1H-pyrazol-4-yl)-3-(1,2,3,6-tetrahydropyridin-4-yl)-thieno[3.2-b]pyridine] | 3000 to 10000 | 500 to 3000 | 500 to 3000 | 3000 to 10000 | 500 to 3000 |
| Cn1cc(-c2ccc3scc(-c4cccnc4)c3n2)cn1 [Preparative Example 11, 5-(1-methyl-1H-pyrazol-4-yl)-3-(pyridin-3-yl)thieno[3,2-b]pyridine] | 3000 to 10000 | 500 to 3000 | 100 to 499 | 500 to 3000 | 500 to 3000 |
| Cn1cc(-c2ccc3scc(-c4ccncc4)c3n2)cn1 [Preparative Example 13, 5-(1-methyl-1H-pyrazol-4-yl)-3-(pyridin-4-yl)thieno[3,2-b]pyridine] | 3000 to 10000 | 100 to 499 | 100 to 499 | 500 to 3000 | 100 to 499 |
| Cc1cc(-c2csc3ccc(-c4cnn(C)c4)nc23)ccn1 [Preparative Example 15, 5-(1-methyl-1H-pyrazol-4-yl)-3-(2-methylpyridin-4-yl)-thieno[3,2-b]pyridine] | 500 to 3000 | 100 to 499 | 100 to 499 | 100 to 499 | 100 to 499 |
| COc1cc(-c2csc3ccc(-c4cnn(C)c4)nc23)ccn1 [Preparative Example 17, 3-(2-methoxypyridin-4-yl)-5-(1-methyl-1H-pyrazol-4-yl)thieno[3.2-b]pyridine] | 500 to 3000 | 100 to 499 | 100 to 499 | 500 to 3000 | 100 to 499 |
| Cn1cc(-c2ccc3scc(-c4ccnc(F)c4)c3n2)cn1 [Preparative Example 22, 3-(2-fluoropyridin-4-yl)-5-(1-methyl-1H-pyrazol-4-yl)thieno[3,2-b]pyridine] | 3000 to 10000 | 100 to 499 | 100 to 499 | 100 to 499 | 100 to 499 |
| Cn1cc(-c2ccc3scc(-c4ccnc(CN)c4)c3n2)cn1 [Preparative Example 28, (4-(5-(1-methyl-1H-pyrazol-4-yl)thieno[3,2-b]pyridin-3-yl)pyridin-2-yl)methanamine] | 3000 to 10000 | 100 to 499 | 500 to 3000 | 500 to 3000 | 500 to 3000 |
| Cc1cc(-c2csc3ccc(-c4cnn(C)c4)nc23)cc(C)n1 [Preparative Example 30, 3-(2,6-dimethylpyridin-4-yl)-5-(1-methyl-1H-pyrazol-4-yl)thieno-[3,2-b]pyridine] | 3000 to 10000 | 100 to 499 | 500 to 3000 | 500 to 3000 | 100 to 499 |
| Cc1cnccc1-c1csc2ccc(-c3cnn(C)c3)nc12 [Preparative Example 32, 5-(1-methyl-1H-pyrazol-4-yl)-3-(3-methylpyridin-4-yl)thieno[3,2-b]pyridine] | 3000 to 10000 | 500 to 3000 | 500 to 3000 | 3000 to 10000 | 500 to 3000 |
| Cn1cc(-c2ccc3scc(-c4ccncc4C#N)c3n2)cn1 [Preparative Example 34, 4-(5-(1-methyl-1H-pyrazol-4-yl)thieno[3,2-b]pyridin-3-yl)nicotino-nitrile] | 3000 to 10000 | 500 to 3000 | 500 to 3000 | 3000 to 10000 | 3000 to 10000 |
| Cn1cc(-c2ccc3scc(-c4ccncc4F)c3n2)cn1 [Preparative Example 36, 3-(3-fluoropyridin-4-yl)-5-(1-methyl-1H-pyrazol-4-yl)thieno[3,2-b]pyridine] | 500 to 3000 | 100 to 499 | 100 to 499 | 100 to 499 | 100 to 499 |
| Cn1cc(-c2ccc3scc(-c4ccnnc4)c3n2)cn1 [Preparative Example 40, 5-(1-methyl-1H-pyrazol-4-yl)-3-(pyridazin-4-yl)thieno[3,2-b]-pyridine] | 3000 to 10000 | 500 to 3000 | 500 to 3000 | 500 to 3000 | 500 to 3000 |
| Cn1cc(-c2ccc3scc(-c4ccc5ncnn5c4)c3n2)cn1 [Preparative Example 53, 3-([1,2,4]-triazolo[1,5-a]pyridin-6-yl)-5-(1-methyl-1H-pyrazol-4-yl)thieno[3,2-b]pyridine] | 500 to 3000 | 100 to 499 | 100 to 499 | 20 to 99 | 100 to 499 |
| Cn1cc(-c2ccc3scc(-c4cnn(C)c4)c3n2)cn1 [Preparative Example 63, 3,5-bis(1-methyl-1H-pyrazol-4-yl)thieno[3,2-b]pyridine] | 500 to 3000 | 100 to 499 | 100 to 499 | 500 to 3000 | 100 to 499 |
| Cn1cc(-c2ccc3scc(-c4ccns4)c3n2)cn1 [Preparative Example 67, 3-(isothiazol-5-yl)-5-(1-methyl-1H-pyrazol-4-yl)thieno[3,2-b]pyridine] | 500 to 3000 | 100 to 499 | 20 to 99 | 20 to 99 | 20 to 99 |
